Patent US20180353403A1, “SKIN-WHITENING COSMETIC COMPOSITION CONTAINING ROSEMARY-DERIVED VERBENONE AS ACTIVE INGREDIENT” (Jeju National University Industry-Academic Cooperation …, priority 2014, published 2018)

Legend:
[1] = system: mushroom tyrosinase; assay: Mushroom tyrosinase inhibition assay; format: biochemical
Protocol: 60 μl of a 1 M phosphate buffer (pH 6.8), 10 μl of a sample solution, and 20 μl of 500 U/ml mushroom tyrosinase were sequentially added, and then incubated at room temperature for 5 minutes. After incubation, 60 μl of an aqueous solution containing 1 mM L-tyrosine was added to initiate a reaction. The reaction was performed at 37° C. for 30 minutes, and absorbance was measured at 490 nm. Mushroom tyrosinase inhibition activity was calculated by the following equation.
Mushroom tyrosinase inhibition activity (%)=(B−A)/A×100
(§1) A: OD490 value of treated group
B: OD490 value of blank control

[2] = system: B 16F10 melanoma cells; assay: Measurement of melanin content in B16F10 cells; format: cell-based, mouse
Protocol: B 16F10 melanoma cells, obtained from mice, were used as melanin-producing cells. The cultured B 16F10 cells were treated with […] α-melanocyte-stimulating hormone (α-MSH) (a control group). After 1 day, 2.5, 1.25, 0.625 mM verbenone and 2 mM arbutin (a positive control group) were added to the cells, the cells were cultured for 1 day and 2 days, respectively (experimental groups). The cultured cells were washed twice with PBS and harvested by centrifugation at 1500 rpm for 5 minutes. 300 ill of 1 N NaOH containing 10% DMSO was added to the cell pellet and then incubated at 80° C. for 1 hour to dissolve melanin. Melanin content was calculated by the following equation.
Melanin content (%)=A/B×100
as §1
B: OD490 value of non-treated group

[3] = system: tyrosinase in B16F10 cells; assay: Tyrosinase inhibition activity in B16F10 cells; format: cell-based, mouse; conditions: α-MSH for one day, then 0.625, 1.25 and 2.5 mM, measured after 24 and 48 hours (FIG. 3)
Protocol: Cultured cells were harvested by adding […]. After harvesting, 500 μl of a cell lysis buffer (10 mM sodium phosphate buffer containing 1% Triton X-100 and 0.1 mM PMSF) was added to the harvested cells. To lyse the cells, sonication was performed on the cells and subsequently the cells were incubated on ice for 30 minutes. The lysed cells were centrifuged at 13000 rpm for 30 minutes, and the obtained cell lysate was used to measure tyrosinase activity.
To evaluate the inhibitory efficacy of verbenone against tyrosinase in B16F10 mouse melanoma cells, B16F10 cells were treated with α-MSH for one day to increase tyrosinase. Then, the cells were treated with verbenone at concentrations of 0.625, 1.25 and 2.5 mM, respectively, and tyrosinase activity was measured after 24 and 48 hours, respectively.

[4] = system: TRP-1, TRP-2, tyrosinase and MITF; assay: Western blot of melanogenesis-related proteins in B16F10 cells; format: cell-based, mouse
Protocol: After 24 hours, the cells were treated with verbenone at concentrations of 0.625, 1.25, and 2.5 mM, respectively, followed by culturing for 72 hours. The cultured cells were harvested and washed three times with PBS. Then, to lyse the cells, 500 μl of a lysis buffer was added to the cells and the cells were sonicated, followed by incubation for 30 minutes. After cell lysis, centrifugation was performed at 12,000 rpm and 4° C. for 30 minutes to obtain a supernatant. Protein concentration was quantified using bovine serum albumin (BSA) as a standard. Equivalent amounts of the denatured lysates were loaded onto a 12% sodium dodecyl sulfate-polyacrylamide gel, and electrophoresis was performed at 45 mA to separate proteins. After sodium dodecyl sulfate-polyacrylamide gel electrophoresis (SDS-PAGE), the separated proteins present in the gel were transferred onto a membrane at 150 V for 80 minutes. Then, blocking of the membrane was performed for overnight using TTBS (TBS+0.1% Tween 20) solution containing 5% skim milk. Primary antibodies against melanogenesis-related proteins and actin were prepared in a ratio of 1:1,000, and a primary antibody reaction was performed at room temperature for 3 hours. Anti-rabbit IgG and anti-mouse IgG were used as secondary antibodies and diluted 1:5,000. A secondary antibody reaction was performed at room temperature for 1 hour. […]

Row | mushroom tyrosinase inhibition activity ([1]; 2.5 and 5 mM verbenone (FIG. 2)) | SMILES | mushroom tyrosinase inhibition activity ([1]; kojic acid control at 200, 400 or 800 μM (FIG. 2)) | color of the cell pellet ([2]; 20 nM α-MSH + 0.625, 1.25, 2.5 mM verbenone (FIG. 5)) | change in melanin content in B 16F10 cells ([2]; screen of six rosemary components, various concentrations, 72 hours, 490 nm, compared to arbutin-treated cells (FIG. 1)) | melanin content in B16F10 cells ([2]; α-MSH 24 hours, then 0.625, 1.25 and 2.5 mM, measured after 24 and 48 hours (FIG. 4)) | tyrosinase activity in B16F10 cells [3] | expression levels of the melanogenesis-related proteins ([4]; 20 nM α-MSH for 24 hours, then 0.625, 1.25, 2.5 mM, western blotting (FIG. 6A)) | expression levels of melanogenesis-related proteins TRP-1, TRP-2, tyrosinase and MITF ([4]; without α-MSH, 0.625, 1.25, 2.5 mM, 72 hours, western blotting (FIG. 6B))
1 |  | O=c1cc(CO)occ1O [kojic acid, reference compound] | observed in a concentration-dependent manner |  |  |  |  |  | 
2 | no inhibitory effect was observed | CC1=CC(=O)[C@@H]2C[C@H]1C2(C)C [verbenone] |  | weakened by verbenone in a concentration-dependent manner | most significantly decreased | reduced by verbenone in B16F10 cells in a concentration-dependent manner | inhibited tyrosinase in B16F10 cells | reduced in the verbenone-treated group in a concentration-dependent manner | decreased by verbenone in a concentration-dependent manner
